Earlier results in patent publication US20140017187A1, “Use of 5-(7-methoxy-3,3-dimethyl-2,3-dihydro-1-benzoxepin-5-yl)-3-methyl-penta-2,4-dienoic acid as a cosmetic” (Merck Patent GmbH, priority 2008, published 2014).

Target: T1, PPAR-alpha (Homo sapiens, UniProt Q07869)
T1 sequence (Q07869 1-468): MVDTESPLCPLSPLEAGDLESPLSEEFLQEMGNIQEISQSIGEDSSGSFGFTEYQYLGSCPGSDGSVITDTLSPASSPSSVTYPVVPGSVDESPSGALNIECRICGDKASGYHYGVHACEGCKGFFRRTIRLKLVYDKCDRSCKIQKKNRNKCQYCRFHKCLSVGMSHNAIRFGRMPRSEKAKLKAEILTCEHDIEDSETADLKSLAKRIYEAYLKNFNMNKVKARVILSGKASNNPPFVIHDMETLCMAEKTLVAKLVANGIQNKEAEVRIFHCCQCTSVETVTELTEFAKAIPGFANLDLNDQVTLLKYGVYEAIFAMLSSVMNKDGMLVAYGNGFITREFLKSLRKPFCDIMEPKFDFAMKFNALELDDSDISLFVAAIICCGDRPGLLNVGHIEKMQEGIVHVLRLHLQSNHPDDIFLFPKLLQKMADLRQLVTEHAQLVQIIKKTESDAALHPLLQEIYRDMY
Conditions: personal communication Johann Wiechers; cited from earlier work

## Octadecenedioic acid [O.D.A. White]
  PPAR-alpha activation: negligible
